38 compounds from ChEMBL document CHEMBL1145354, “Benzopyran sulfonamides as KV1.5 potassium channel blockers” (Bioorg Med Chem Lett, 2007) can be followed below.

The structures appear in SMILES notation.

For series [1], the target named is Potassium voltage-gated channel subfamily A member 5 (Homo sapiens, UniProt P22460). The series is described as follows: Inhibition of human Kv1.5 channel expressed in mouse L929 cells. Type of series: cell-based.
The target in a further series is hERG (KCNH2) (Homo sapiens, UniProt Q12809). Briefly: Inhibition of human ERG expressed in human embryonic kidney cells at 10 uM. Type of series: cell-based. The settings on record: human embryonic kidney cells expressing human ERG.
Sequence of hERG (KCNH2) (Q12809 whole entry): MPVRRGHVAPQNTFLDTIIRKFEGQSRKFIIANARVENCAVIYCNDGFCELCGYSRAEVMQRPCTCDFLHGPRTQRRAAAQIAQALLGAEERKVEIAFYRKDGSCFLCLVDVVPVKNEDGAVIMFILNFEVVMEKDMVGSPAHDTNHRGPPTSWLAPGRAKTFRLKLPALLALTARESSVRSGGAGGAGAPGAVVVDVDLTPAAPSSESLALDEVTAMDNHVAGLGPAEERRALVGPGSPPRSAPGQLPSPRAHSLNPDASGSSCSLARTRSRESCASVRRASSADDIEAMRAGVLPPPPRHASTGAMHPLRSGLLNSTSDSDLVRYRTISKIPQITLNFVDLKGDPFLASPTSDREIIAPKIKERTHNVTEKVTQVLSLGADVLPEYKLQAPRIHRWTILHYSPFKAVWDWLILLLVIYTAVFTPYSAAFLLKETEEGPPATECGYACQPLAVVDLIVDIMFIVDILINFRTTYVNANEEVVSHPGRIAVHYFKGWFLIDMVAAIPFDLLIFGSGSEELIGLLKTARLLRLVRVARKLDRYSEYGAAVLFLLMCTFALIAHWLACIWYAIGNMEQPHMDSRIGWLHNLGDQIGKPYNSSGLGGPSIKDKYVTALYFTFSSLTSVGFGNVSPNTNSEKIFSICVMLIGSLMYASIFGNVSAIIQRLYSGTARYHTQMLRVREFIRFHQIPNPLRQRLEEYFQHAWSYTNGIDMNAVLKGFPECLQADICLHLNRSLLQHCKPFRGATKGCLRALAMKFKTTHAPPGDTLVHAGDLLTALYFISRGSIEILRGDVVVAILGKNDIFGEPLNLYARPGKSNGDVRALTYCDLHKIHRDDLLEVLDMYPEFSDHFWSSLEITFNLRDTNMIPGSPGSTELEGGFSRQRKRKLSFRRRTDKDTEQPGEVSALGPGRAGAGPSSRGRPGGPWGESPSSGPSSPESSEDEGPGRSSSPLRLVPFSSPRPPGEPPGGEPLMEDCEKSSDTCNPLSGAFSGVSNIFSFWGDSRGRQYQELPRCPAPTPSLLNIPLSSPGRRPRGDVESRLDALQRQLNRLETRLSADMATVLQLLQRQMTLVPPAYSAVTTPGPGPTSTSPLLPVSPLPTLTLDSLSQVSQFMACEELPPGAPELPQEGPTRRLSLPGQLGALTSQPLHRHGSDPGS

As usually defined, the IC50 is the concentration needed to halve the response being measured. Low values mean higher potency, high ones lower potency. What is called inhibition is the share of the control response that was lost under treatment. Read a low inhibition as a response near the control.

Sequence of Potassium voltage-gated channel subfamily A member 5 (P22460 whole entry): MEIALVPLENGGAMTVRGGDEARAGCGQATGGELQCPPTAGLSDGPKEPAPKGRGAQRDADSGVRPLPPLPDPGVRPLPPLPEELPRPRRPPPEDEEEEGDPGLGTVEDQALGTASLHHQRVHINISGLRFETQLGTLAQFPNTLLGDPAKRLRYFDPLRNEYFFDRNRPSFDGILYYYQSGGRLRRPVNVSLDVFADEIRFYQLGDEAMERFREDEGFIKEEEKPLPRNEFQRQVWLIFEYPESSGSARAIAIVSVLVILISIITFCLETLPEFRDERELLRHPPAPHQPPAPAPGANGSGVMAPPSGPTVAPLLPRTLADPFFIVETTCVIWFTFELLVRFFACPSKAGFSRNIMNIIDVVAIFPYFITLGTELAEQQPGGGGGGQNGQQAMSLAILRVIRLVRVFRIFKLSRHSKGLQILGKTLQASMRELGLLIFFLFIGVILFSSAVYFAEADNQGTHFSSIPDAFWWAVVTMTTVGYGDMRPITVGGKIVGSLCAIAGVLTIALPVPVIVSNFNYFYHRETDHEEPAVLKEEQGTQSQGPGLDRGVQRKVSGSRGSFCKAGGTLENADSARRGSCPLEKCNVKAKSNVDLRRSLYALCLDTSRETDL

In series [1], `CCc1ccc(S(=O)(=O)N[C@@H]2c3cc(C(=O)N(CC)Cc4ccccc4F)ccc3OC(C)(C)[C@H]2O)cc1` yielded an IC50 of 170 nM. The inhibition at 10 µM on hERG (KCNH2) was found to be 7%.

In series [1], `CCc1ccc(S(=O)(=O)N[C@@H]2c3cc(C(=O)NCCc4ccccc4)ccc3OC(C)(C)[C@H]2O)cc1` gave an IC50 of 260 nM.

`CCc1ccc(S(=O)(=O)N[C@@H]2c3cc(C(=O)N(CC)CCNc4ccccc4)ccc3OC(C)(C)[C@H]2O)cc1`: in series [1], the IC50 turned out to be 77 nM. Moreover, the inhibition at 10 µM on hERG (KCNH2) is 39%.

The compound `CCc1ccc(S(=O)(=O)N[C@@H]2c3cc(C(=O)NCCc4ccccn4)ccc3OC(C)(C)[C@H]2O)cc1` came in with an IC50 in series [1] of more than 1000 nM.

`CC1(C)Oc2ccc(C(=O)NCCc3ccccc3)cc2[C@@H](NS(=O)(=O)c2ccccc2)[C@@H]1O`: the IC50 in series [1] is more than 1000 nM.

For `Cc1ccc(S(=O)(=O)N[C@@H]2c3cc(C(=O)NCCc4ccccc4)ccc3OC(C)(C)[C@H]2O)cc1`, the midpoint of inhibition in series [1], the IC50, lay at 400 nM.

Compound `Cc1cccc(S(=O)(=O)N[C@@H]2c3cc(C(=O)NCCc4ccccc4)ccc3OC(C)(C)[C@H]2O)c1` had an IC50 in series [1] of 340 nM.

Turning to `CC1(C)Oc2ccc(C(=O)NCCc3ccccc3)cc2[C@@H](NS(=O)(=O)c2ccccc2OC(F)(F)F)[C@@H]1O`, in series [1], the IC50 turned out to be 150 nM.

For the compound `CCc1ccc(S(=O)(=O)N[C@H]2c3cc(C(=O)NCCc4ccccc4)ccc3OC(C)(C)[C@@H]2O)cc1`, the IC50 in series [1] is more than 1000 nM.

Compound `CCc1ccc(S(=O)(=O)N[C@H]2c3cc(C(=O)N4CCC[C@@H]4CNc4c(C)cccc4C)ccc3OC(C)(C)[C@@H]2O)cc1` displayed an IC50 in series [1] of 89 nM.

The compound `CCc1ccc(S(=O)(=O)N[C@H]2CC(C)(C)Oc3ccc(C(=O)N4CCC[C@H]4CNc4c(C)cccc4C)cc32)cc1` gave an IC50 in series [1] of 110 nM. The same compound gave an inhibition at 10 µM at hERG (KCNH2) of 51%.

As to `CCc1ccc(S(=O)(=O)N[C@@H]2c3cc(C(=O)N(CC)[C@@H]4CCN(Cc5ccccc5)C4)ccc3OC(C)(C)[C@H]2O)cc1`, half-maximal inhibition in series [1] (IC50) required 210 nM.

The compound `CCc1ccc(S(=O)(=O)N[C@@H]2c3cc(C(=N)NCCc4ccccc4)ccc3OC(C)(C)[C@H]2O)cc1` had an IC50 in series [1] of more than 10000 nM.

As to `CCc1ccc(S(=O)(=O)N(Cc2ccccn2)[C@@H]2c3cc(C(=O)NCCc4ccccc4)ccc3OC(C)(C)[C@H]2O)cc1`, in series [1], the IC50 was determined as 120 nM.

As for `CCc1ccc(S(=O)(=O)N[C@@H]2c3cc(C(=O)N4CCC[C@@H]4CNc4c(C)cccc4C)ccc3OC(C)(C)[C@H]2O)cc1`, the IC50 in series [1] was found to be 130 nM.

With `CC1(C)Oc2ccc(C(=O)NCCc3ccccc3)cc2[C@@H](NS(=O)(=O)c2ccc(F)cc2)[C@@H]1O`, the IC50 in series [1] is more than 1000 nM.

In series [1], `COc1ccc(S(=O)(=O)N[C@@H]2c3cc(C(=O)NCCc4ccccc4)ccc3OC(C)(C)[C@H]2O)cc1` showed an IC50 of more than 1000 nM.

With `CCc1ccc(S(=O)(=O)N(Cc2cccnc2)[C@@H]2c3cc(C(=O)NCCc4ccccc4)ccc3OC(C)(C)[C@H]2O)cc1`, the IC50 in series [1] worked out at 130 nM. Also, at 10 µM the inhibition on hERG (KCNH2) was 61%.

In turn, `CCCCN([C@@H]1c2cc(C(=O)NCCc3ccccc3)ccc2OC(C)(C)[C@H]1O)S(=O)(=O)c1ccc(CC)cc1` registered an IC50 in series [1] of 57 nM. Moreover, the inhibition at 10 µM against hERG (KCNH2) is 35%.

As for `CCc1ccc(S(=O)(=O)N(Cc2cnc[nH]2)[C@@H]2c3cc(C(=O)NCCc4ccccc4)ccc3OC(C)(C)[C@H]2O)cc1`, in series [1], the IC50 was found to be 280 nM.

In turn, `CCc1ccc(S(=O)(=O)N(CC(C)(C)C)[C@@H]2c3cc(C(=O)NCCc4ccccc4)ccc3OC(C)(C)[C@H]2O)cc1` gave an IC50 in series [1] of 120 nM.

`CCc1ccc(S(=O)(=O)N[C@@H]2c3cc(NC(=O)c4cccc(OC)c4)ccc3OC(C)(C)[C@H]2O)cc1` registered an IC50 in series [1] of 290 nM. For the same compound, the inhibition at 10 µM against hERG (KCNH2) was determined as 40%.

`CCc1ccc(S(=O)(=O)N[C@@H]2c3cc(C(=O)Nc4cccc(OC)c4)ccc3OC(C)(C)[C@H]2O)cc1`: the IC50 in series [1] is more than 10000 nM.

Turning to `CCc1ccc(S(=O)(=O)N[C@@H]2c3cc(C(=O)Nc4ccccc4)ccc3OC(C)(C)[C@H]2O)cc1`, the IC50 in series [1] was 260 nM.

At hERG (KCNH2), `CCc1ccc(S(=O)(=O)N[C@@H]2c3cc(NC(=O)c4cccc(OC)c4)ccc3C[C@H]2O)cc1` had an inhibition at 10 µM of 21%.

On to `CCc1ccc(S(=O)(=O)N[C@@H]2c3cc(CNCCc4ccccc4)ccc3OC(C)(C)[C@H]2O)cc1`, for which, in series [1], the IC50 was 240 nM.

For the compound `CCc1ccc(S(=O)(=O)N[C@@H]2c3cc(C(=O)N4CCC[C@H]4CNc4c(C)cccc4C)ccc3OC(C)(C)[C@H]2O)cc1`, the IC50 in series [1] was 120 nM. Moreover, on hERG (KCNH2), testing at 10 µM gave an inhibition of 9%.

Compound `CCc1ccc(S(=O)(=O)N[C@@H]2c3cc(C(=O)N(C)c4ccccc4)ccc3OC(C)(C)[C@H]2O)cc1` returned an IC50 in series [1] of 280 nM.

On to `CCc1ccc(S(=O)(=O)N[C@@H]2c3cc(C(=O)n4nc(-c5ccccc5)cc4N)ccc3OC(C)(C)[C@H]2O)cc1`, for which, in series [1], 79 nM corresponded to half-maximal inhibition (IC50). The compound further returned an inhibition at 10 µM on hERG (KCNH2) of 47%.

For the compound `CCc1ccc(S(=O)(=O)N[C@@H]2c3cc(C(=O)N(CC)[C@H]4CCN(Cc5ccccc5)C4)ccc3OC(C)(C)[C@H]2O)cc1`, the IC50 in series [1] is 170 nM.

As for `CCc1ccc(S(=O)(=O)N[C@H]2c3cc(C(=O)N4CCC[C@H]4CNc4c(C)cccc4C)ccc3OC(C)(C)[C@@H]2O)cc1`, half-maximal inhibition in series [1] (IC50) was put at 260 nM.

In turn, `CCc1ccc(S(=O)(=O)N[C@H]2c3cc(C(=O)N(CC)[C@@H]4CCN(Cc5ccccc5)C4)ccc3OC(C)(C)[C@@H]2O)cc1` returned an IC50 in series [1] of 220 nM.

The compound `CCc1ccc(S(=O)(=O)N[C@@H]2c3cc(C(=O)NCCc4c[nH]cn4)ccc3OC(C)(C)[C@H]2O)cc1` showed an IC50 in series [1] of more than 10000 nM.

Take `CC1(C)Oc2ccc(C(=O)NCCc3ccccc3)cc2[C@@H](NS(=O)(=O)c2ccc(C(F)(F)F)cc2)[C@@H]1O`: the IC50 in series [1] turned out to be 200 nM.

Consider `CCc1ccc(S(=O)(=O)N[C@@H]2c3cc(S(=O)(=O)NCCc4ccccc4)ccc3OC(C)(C)[C@H]2O)cc1`, for which the IC50 in series [1] is 510 nM.

The compound `CC1(C)Oc2ccc(C(=O)NCCc3ccccc3)cc2[C@@H](NS(=O)(=O)c2ccc([N+](=O)[O-])cc2)[C@@H]1O` showed an IC50 in series [1] of more than 1000 nM.

As to `CCc1ccc(S(=O)(=O)N(CC(C)C)[C@@H]2c3cc(C(=O)NCCc4ccccc4)ccc3OC(C)(C)[C@H]2O)cc1`, in series [1], the IC50 turned out to be 320 nM.

The compound `CCc1ccc(S(=O)(=O)N[C@H]2c3cc(C(=O)N(CC)[C@H]4CCN(Cc5ccccc5)C4)ccc3OC(C)(C)[C@@H]2O)cc1` registered an IC50 in series [1] of 200 nM. At hERG (KCNH2), this compound registered an inhibition at 10 µM of 80%.
